Results reported in ChEMBL document CHEMBL3596107, “Design, synthesis and evaluation of a series of acyclic fleximer nucleoside analogues with anti-coronavirus activity” (Bioorg Med Chem Lett, 2015).

Columns and labels:
[1] = Cytotoxicity against mock-infected African green monkey Vero118 cells assessed as inhibition of cell survival after 5 days by microscopic analysis; assay type: cell-based; settings: chlorocebus sabaeus; for CC50: 120 h
[2] = Antiviral activity against Human coronavirus NL63 infected in African green monkey Vero118 cells assessed as inhibition of virus-induced cytopathic effect after 5 days by microscopic analysis; assay type: functional; settings: Human coronavirus NL63, 120 h
[3] = Cytotoxicity against mock-infected African green monkey Vero E6 cells assessed as inhibition of cell survival after 3 days by CellTiter 96 AQueous Non-Radioactive Cell Proliferation Assay; assay type: cell-based; settings: chlorocebus sabaeus, vero c1008, 72 h
[4] = tested on: Middle East respiratory syndrome-related coronavirus; assay: Antiviral activity against MERS-CoV EMC/2012 infected in African green monkey Vero cells assessed as inhibition of virus-induced cytopathic effect after 3 days by CellTiter 96 AQueous Non-Radioactive Cell Proliferation Assay; assay type: functional, cell-based; settings: EMC/2012, Vero, 72 h
Vero = assay: Cytotoxicity against mock-infected African green monkey Vero cells assessed as inhibition of cell survival after 3 days by CellTiter 96 AQueous Non-Radioactive Cell Proliferation Assay; assay type: cell-based; settings: chlorocebus sabaeus, 72 h
[5] = Cytotoxicity against mock-infected human HuH7 cells assessed as inhibition of cell survival after 2 days by CellTiter 96 AQueous Non-Radioactive Cell Proliferation Assay; assay type: cell-based; settings: huh-7, 48 h
[6] = tested on: Middle East respiratory syndrome-related coronavirus; assay: Antiviral activity against MERS-CoV EMC/2012 infected in human HuH7 cells assessed as inhibition of virus-induced cytopathic effect after 2 days by CellTiter 96 AQueous Non-Radioactive Cell Proliferation Assay; assay type: functional, cell-based; settings: EMC/2012, Huh-7, 48 h
[7] = Antiviral activity against SARS-CoV Frankfurt 1 infected in African green monkey Vero E6 cells assessed as inhibition of virus-induced cytopathic effect after 3 days by CellTiter 96 AQueous Non-Radioactive Cell Proliferation Assay; assay type: functional, cell-based, SARS coronavirus Frankfurt 1
SARS-CoV = assay: Antiviral activity against SARS-CoV assessed as inhibition of viral replication; assay type: functional, Severe acute respiratory syndrome-related coronavirus

SMILES | CC50 [1] | EC50 [2] | CC50 [3] | EC50 [4] | CC50 (Vero) | CC50 [5] | EC50 [6] | EC50 ([7]; vero e6) | CC50 at 120 h ([1]; mock-infected Vero118 cells) | EC50 ([7]; Severe acute respiratory syndrome-related coronavirus, Vero C1008, 72 h, read-out: EC50) | INH (SARS-CoV)
OCCOCn1cnc(-c2cnc(O)nc2O)c1 | > 200 µM | 92 µM |  |  |  |  |  |  |  |  | 
COc1nc(N)ncc1-c1cn(COCCO)cn1 | 120 µM | 8.8 µM | 138 µM | 23 µM | 71 µM | 149 µM | 27 µM | Not Active |  |  | 
Nc1ncc(-c2cn(COCCO)cn2)c(O)n1 | > 200 µM | > 200 µM |  |  |  |  |  |  |  |  | 
Nc1nc2c(ncn2COCCO)c(=O)[nH]1 [ACYCLOVIR] |  | > 100 µM | > 1000 µM | > 1000 µM | > 1000 µM | > 1000 µM | > 1000 µM |  | > 100 µM | > 1000 µM | 
NC(=O)c1ncn([C@@H]2O[C@H](CO)[C@@H](O)[C@H]2O)n1 [RIBAVIRIN] |  |  |  |  |  |  |  |  |  |  | 500 µg/mL
